88 compounds from a melting point compilation (Tetko et al.; mined from patent text by program, amines drawn as free bases though some values may be those of a salt) can be followed below.

As a reminder, the melting point is the temperature, or range, at which the solid turns liquid.

Bounds are passed on as bounds.

`CN(C)C(=O)c1nc(-c2ccccc2)nc2c1c1ccccc1n2C` gave a melting point of 193 to 195 °C. Under `Cc1c2c3c(ccc2nn1C)CCC3=CC#N` stands 200 to 203 °C; under `Fc1cc(C(Cl)(Cl)Cl)c(Cl)c(C(Cl)Cl)c1Cl`, 74 to 76 °C; under `CCCCCC(C)C(C)c1cc(O)c2c(c1)OC(C)(C)C1=C2CN(CC(=O)Nc2ccccc2)CC1` (stereo not drawn), 125 to 127 °C. Under `CC(C)(C)OC(=O)NC(C(=O)Nc1n[nH]c(=S)s1)c1ccccc1` (stereo not drawn) stands 194 to 195 °C. For `CC(=O)Oc1ccc(-n2cc(C(=O)O)c(=O)cc2-c2ccc(N(C)C)cc2)cc1`, the melting point lay in the range of 128 to 131 °C. `CC(=O)N(C)N(C)c1ccc(CCn2cnc3cc(-c4ccc(Cl)cc4)sc3c2=O)cc1` returned a melting point of 227 to 228 °C. Next, `CCOC(=O)CNC(=O)CCc1cc(Cl)ccc1C(=O)CCCNC(=O)CCCNC(C)=O`: 94 to 96 °C; `CCOc1cc2c(Nc3cc(OC)c(Cl)cc3Cl)c(C#N)cnc2cc1C#CCCO`: 220 to 222 °C; `CN(C)C(=O)CC(C)(C)C(=O)O`: 119 to 121 °C.

With `CN(c1nc2cc(NC(=O)OC(C)(C)C)ccn2n1)C1CC1`, the melting point amounted to 323 °C. Next, `CCOc1cc(OCC)nc(-c2nsc3ccc(-n4c(=O)cc(C(F)(F)F)n(C)c4=O)cc23)n1`: 197 to 200 °C.

Regarding `O=C(O)C1(CC#CBr)CCCCC1`, the melting point stood at 98 °C. Next, `CC(=O)OC1=CC=C2CC3N4CCC25C1OC1C(=O)CCC3(OC4)C15` (stereo not drawn): 179 to 182 °C; `CN1C2CCC1CN(c1ccc(Br)nn1)C2`: 118 to 120 °C; `CC(C(=O)O)c1ccc2c(Br)c(OCc3ccc4ccccc4n3)ccc2c1` (stereo not drawn): 210 to 212 °C. Next, `Cc1noc2cc3c(cc12)C1(CO3)C(=O)N(Cc2cnccn2)c2ccccc21` (stereo not drawn): 170 to 173 °C.

For the compound `CC(C)(C(=O)O)c1cc(C(=O)c2ccccc2)ccc1O`, the melting point amounted to 207 °C. Next, `Cc1oc(-c2ccccc2)nc1CCC(O)c1ccc(CCC2OC(=O)NC2=O)cc1` (stereo not drawn): 145 to 146 °C; `Nc1c(-c2ccc(Cl)cc2)nc2ccccc2c1C(=O)O`: 243 to 244 °C; `O=C(Nc1ccc(-n2ccnc2)cc1)Nc1ccc(C(F)(F)F)cc1`: 209 to 213 °C. Under `Cn1cc(C2CCC3(CC2)OCCO3)c2cc(C#N)ccc21` stands 170 to 172 °C; under `Nc1cc(O)nc2c(-c3ccncc3)c(-c3ccc(F)cc3)nn12`, > 250 °C; under `O=C1N(N(c2ccccc2)c2ccccc2)c2ccccc2C1(Cc1ccnc(F)c1)Cc1ccnc(F)c1`, 179 to 180 °C.

`CN(C)CC(=O)Nc1cccc2nc(NC3CCc4cc(F)ccc43)ccc12` (racemic) gave a melting point of 164 °C. Under `COc1ccc2cc(I)ccc2c1` stands 142 to 143 °C; under `O=C(Nc1cc(C(=O)O)cc(C(=O)O)c1)Oc1ccccc1`, > 300 °C. In the case of `CC#CCOc1ccc(S(=O)(=O)C(C(=O)NO)C2CCN(Cc3ccc(OC)cc3)CC2)cc1` (stereo not drawn), the melting point came out at 138 °C. Next, `CC(C)(C)c1ccc(/C=C/C(=O)Nc2ccc3nccnc3c2)cc1`: 229 to 230 °C; `O=c1oc(/C=C/c2ccccc2)ns1`: 105 to 106 °C; `COc1cc2c(cc1Nc1ncc(Cl)c(Nc3c(OC)ccc4c3CN(S(C)(=O)=O)CC(=O)N4)n1)CCN(CC(=O)N(C)C)CC2`: 118 to 121 °C. Under `O=C1[C@H]2CCC[C@H]2N(C(=O)CCn2ccnc2)c2ccccc2N1Cc1ccccc1` (relative stereo) stands 150 to 152 °C; under `CCC12CCC3c4ccc(OC)cc4C(C)CC3C1CCC2=O` (stereo not drawn), 115 to 123 °C.

The compound `C=C(C)C(=O)OCCOc1ccc(-c2ccccc2)cc1` showed a melting point of 59 to 60 °C.

Consider `COC(=O)C(CNC(C)=O)C1CCC(C(C)(C)C)CC1` (stereo not drawn), for which the melting point was in the range of 73 to 75 °C. Under `O=c1c2cc(O)ccc2sc2c([N+](=O)[O-])ccc(Cl)c12` stands > 300 °C. Under `O=C(N[C@H](Cc1ccc(C(F)(F)F)c(F)c1)[C@@H](O)c1ccc(F)cc1)c1ccc(F)c2ccccc12` (racemic) stands 212 to 213 °C; under `Nc1ncc(Oc2ccc(Cl)cc2)c(N[C@H]2CC[C@H](O)CC2)n1`, 154 to 155 °C; under `O=C(O)CCc1ccc2c(c1)C(=O)c1ccccc1CO2`, 128 to 130 °C. As to `O=C(Nc1ccc(Br)c(C(F)(F)F)c1)c1ccccc1[N+](=O)[O-]`, the melting point is 157 to 158 °C. Under `O=C1Nc2cc(C(F)(F)F)ccc2C1=O` stands 196 to 198 °C; under `O=C(O)c1cn(CCc2cccc(Cl)c2)c2cc(C3CC3)nn2c1=O`, 230 to 235 °C; under `CC(C)NC(=O)c1nc(Cl)c(Cl)[nH]1`, 150 °C. Next, `C=CCN(CC=C)c1nc(NC(=O)CCCC(=O)OC)n2oc(=O)nc2n1`: 164 to 165 °C; `Cc1cc(Br)cnc1CCCCNC1=NS(=O)(=O)c2cc([N+](=O)[O-])ccc21`: 235 to 242 °C. Under `COc1ccc2oc3ccccc3c2c1C(=O)Nc1cc(Cl)ccc1Cl` stands 202 °C; under `CC(=O)Nc1cc2c(cc1C#N)C(Nc1ccc(C(=O)OC(C)(C)C)cc1)CC2` (stereo not drawn), 173 to 174 °C. Consider `Cn1nc(-c2cc(CO)c(Cl)cc2F)c(Cl)c1C(F)(F)F`, for which the melting point stood at 90 °C. Under `COC(=O)c1ccc2ncn(-c3ccc(OC)cc3)c2c1` stands 112 to 113 °C; under `O=C(c1ccc(Cl)cc1)c1ccc(CSC(F)F)cc1`, 34 to 35 °C. Next, `N#Cc1cc(-c2ccoc2)c2ccc(OCc3cncc(-c4ccccc4)c3)cc2c1`: 138 to 140 °C. Next, `CCOC(=O)C(=O)Cc1c(OCc2ccccc2)cc(C)cc1[N+](=O)[O-]`: 80 to 82 °C; `Fc1ccc(-c2nc3ccc(N4CCC5(CCCNC5)CC4)nn3c2-c2ccnc3[nH]ccc23)cc1`: 279 to 280 °C; `CCC(C)Oc1nc(N)nc2c1ncn2C1C=CC(CO)C1` (stereo not drawn): 159 to 161 °C. For the compound `Cn1ncc2c1-c1c(Sc3ccccc3)sc(C(=O)O)c1CC2`, the melting point was in the range of 205 to 206 °C.

As to `O=[N+]([O-])c1ccc(I)c(C(F)(F)F)c1`, the melting point was in the range of 81 to 82 °C.

In turn, `Cc1cc(NS(=O)(=O)c2n[nH]c(NC=O)n2)ccc1Br` showed a melting point of 282 to 284 °C. Next, `CC(C)c1cc(C(=O)NCc2ccccc2)c(N)s1`: 170 to 172 °C; `CCCCC(CC)COc1cc(CO)c(-n2c3ccccc3c3ccccc32)cc1CO` (stereo not drawn): 128 °C; `COc1ccc(CCCc2c[nH]c(C(=O)N3CCC[C@@H]3C(=O)N[C@H]3CC(=O)O[C@@H]3OCc3ccccc3)n2)cc1`: 62 to 65 °C. Take `CCOC(=O)C1(C)CCc2ccccc2O1` (stereo not drawn): the melting point was in the range of 79 to 80 °C. Next, `NC(=O)N(c1ccccc1)c1nc(Cl)nc(Cl)n1`: 151 to 154 °C; `O=C1CC[C@H](COC(c2ccccc2)(c2ccccc2)c2ccccc2)N1CCCc1ccccc1`: 109 °C; `O=C(CC(=O)C1CCCCC1)C1CCCCC1`: 50 to 52 °C. For `CC=CCSc1cc(C(=O)O)cc([N+](=O)[O-])c1-c1ccccc1`, the melting point was in the range of 138 to 140 °C. Under `CC(C)Oc1c(C(=O)Nc2nnn[nH]2)sc2c1CN(C(=O)OC(C)(C)C)CC2` stands 189 to 191 °C; under `COc1ccc(-c2cnc(S(C)(=O)=O)nc2)cc1OC1CCCC1`, 188 to 190 °C.

In turn, `CCOC(=O)c1cnc(O)c2c(C)n[nH]c12` yielded a melting point of 310 °C. `O=C(CCCCCCCNC(=O)c1cn2c3c(cccc13)CCC2)NO` gave a melting point of 174 to 176 °C. Under `COc1cc(C(=O)CCC(=O)c2cc(OCc3ccccc3)c(O)c(S(=O)(=O)CCO)c2)cc(OC)c1OC` stands 129 to 130 °C; under `CC(=O)c1ccc(Cl)c(C)c1F`, 57 °C; under `C=C1N(Cc2ccccc2)C(=O)OC12CCN(Cc1ccccc1)CC2`, 113 to 114 °C. `Cc1ccccc1C(CCC(=O)O)Oc1cc(OCc2cccnc2)ccc1C(=O)c1ccccc1` (stereo not drawn) yielded a melting point of 185 to 186 °C. Next, `CCn1c2ccccc2c2cc(C(C#N)=C(C#N)c3ccc(C(F)(F)F)cc3)ccc21`: 180 to 182 °C. Under `O=C(c1cccs1)c1cccnc1N1CCCC1=O` stands 148 to 150 °C; under `COc1cc(CCCC2OCCO2)ccc1OCc1nc(-c2ccccc2)oc1C`, 74 to 75 °C. Under `CCc1cc2c(s1)-n1c(C)nnc1C(CCCCC(=O)O)N=C2c1ccc(Cl)cc1` (stereo not drawn) stands 257 to 260 °C. Turning to `COCc1nnc2n1-c1sc(Cl)cc1C(c1ccccc1[N+](=O)[O-])=NC2`, the melting point was in the range of 204 to 205 °C. Next, `O=C(CCC(=O)c1ccccc1)NCc1ccccc1`: 110 to 112 °C; `COC(=O)C(C#N)=Cc1cc2c(cc1C)N(CCOC(C)=O)C(C)(C)CC2C` (stereo not drawn): 134 to 135 °C; `NNC(=O)c1ccc2occ(-c3cc(F)ccc3F)c2c1`: 198 to 199 °C. Next, `c1ccc(-c2cn[nH]c2)nc1`: 136 °C; `COc1ccc2c(ccn2CC2(c3ccccc3Br)OCCO2)n1`: 143 to 144 °C. Next, `Cn1c2cc(Cl)ccc2c2c(C(=O)N3CCCC3)nc(-c3ccncc3)nc21`: 256 to 258 °C. The compound `CS(=O)(=O)N1CCC(Nc2nc(Nc3ccc(F)c(C(=O)N4CCOCC4)c3)nc(OCC(F)(F)F)n2)CC1` displayed a melting point of 217 to 219 °C. Under `CC(C)Cn1c(CNC(=O)OC(C)(C)C)c(-c2ccccc2)c2cc(C(N)=S)ccc2c1=O` stands 228 to 229 °C; under `CC(C)(C)OC(=O)NC(Cc1ccc(CO)cc1)c1cccnc1` (stereo not drawn), 130 °C.

The compound `Cn1cc(-c2ccccc2)c(=S)c(-c2cccc(Cl)c2)c1` yielded a melting point of 190 to 193 °C.
